The source of these data is patent publication US8053603B2, “Tetralone-based monoamine reuptake inhibitors” (Sunovion Pharmaceuticals Inc., priority 2006, dated 2011).

What all share (type): cell-based
Assay [1] has as its target T1, recombinant human serotonin transporter (Homo sapiens, UniProt P31645).
T1 construct: expressed in transfected cells; host or cells: HEK-293
In words: Serotonin functional uptake assay for human reuptake transporter. The following applies: [3H]serotonin uptake, HEK-293 cells expressing human serotonin transporter; read-out: Human IC50 (nM) SERT. The method, then:
Serotonin Functional Uptake Assay for Human Reuptake Transporter
HEK-293 cells expressing human serotonin transporter were plated before the assay. […] Cells with internalized [^3H]serotonin were washed and the amount of tritium taken into cells is counted using a liquid scintillation counter to determine [^3H]serotonin uptake.

The target in assay [2] is T2, recombinant human dopamine transporter (Homo sapiens, UniProt Q01959).
T2 construct: expressed in transfected cells; host or cells: CHO-K1 or HEK293
T2 sequence (Q01959 whole entry): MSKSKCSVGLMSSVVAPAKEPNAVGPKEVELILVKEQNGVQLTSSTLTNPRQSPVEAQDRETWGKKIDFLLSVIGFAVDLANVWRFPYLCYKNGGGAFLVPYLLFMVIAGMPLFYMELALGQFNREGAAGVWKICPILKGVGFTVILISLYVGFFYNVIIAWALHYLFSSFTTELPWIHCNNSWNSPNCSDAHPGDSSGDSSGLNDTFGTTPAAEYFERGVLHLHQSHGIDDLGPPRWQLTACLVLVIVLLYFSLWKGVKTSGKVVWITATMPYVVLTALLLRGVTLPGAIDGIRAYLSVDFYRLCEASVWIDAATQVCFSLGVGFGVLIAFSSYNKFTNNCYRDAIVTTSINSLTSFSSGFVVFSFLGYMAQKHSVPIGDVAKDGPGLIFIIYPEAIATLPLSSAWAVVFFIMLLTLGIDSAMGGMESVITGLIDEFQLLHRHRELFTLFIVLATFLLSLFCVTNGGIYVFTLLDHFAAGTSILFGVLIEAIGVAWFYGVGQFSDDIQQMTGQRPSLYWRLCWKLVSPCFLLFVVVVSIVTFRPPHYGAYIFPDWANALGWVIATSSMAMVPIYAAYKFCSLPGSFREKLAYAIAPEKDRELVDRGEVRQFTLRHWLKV
As to the kind of experiment: Dopamine functional uptake assay for human reuptake transporter. The method, then: Dopamine Functional Uptake Assay for Human Reuptake Transporter
Either CHO-K1 or HEK293 cells expressing human recombinant dopamine transporter were plated before the assay. Test compound and/or vehicle was preincubated with cells in modified HEPES buffer pH 7.1 or pH 7.4 for 20 minutes at 18 to 25° C. and 50 nM [^3H]dopamine was then added for an additional timed incubation period (10 to 30 minutes). After washing the cells to remove [^3H]dopamine not internalized, the cells were lysed, and the amount of tritium in the lysate was measured using a liquid scintillation counter to determine [^3H]dopamine uptake. Non-specific binding of tritium was measured in a control reaction containing 10 μM nomifensine, and was subtracted from the counts for assays to correct for non-specific binding of tritium. Reduction of [^3H]dopamine uptake by 50 percent or more (≧50%) relative to an uninhibited control reaction indicates significant inhibitory activity.

Assay [3] concerns the target T3, recombinant human norepinephrine transporter (Homo sapiens, UniProt P23975).
T3 construct: expressed in transfected cells; host or cells: HEK293 or MDCK
In words: Norepinephrine functional uptake assay for human reuptake transporter. The following applies: [3H]norepinephrine uptake, HEK293 or MDCK cells expressing human norepinephrine transporter. How it is done: Norepinephrine Functional Uptake Assay for Human Reuptake Transporter
The cells were plated before the assay. Test compound and/or vehicle was preincubated with cells in modified HEPES buffer pH 7.1 or pH 7.4 for 20 minutes at 18 to 25° C. . […] After the cells were washed to remove [^3H]norepinephrine not internalized, the cells were lysed, and the amount of tritium in the cell lysate was measured using a liquid scintillation counter to determine [^3H]norepinephrine uptake. Non-specific binding of tritium was measured in a control reaction containing 10 μM imipramine (or 10 μM nisoxetine), and was subtracted from the counts for assays to correct for non-specific binding of tritium. Reduction of [^3H]norepinephrine uptake by 50 percent or more (≧50%) relative to an uninhibited control reaction indicates significant inhibitory activity.

The mark [4] stands for this setting: [3H]dopamine uptake, CHO-K1 or HEK293 cells expressing human dopamine transporter, read-out: Human IC50 (nM) DAT.

Where two headings read alike, the source gives them in different places.

T3 sequence (P23975 whole entry): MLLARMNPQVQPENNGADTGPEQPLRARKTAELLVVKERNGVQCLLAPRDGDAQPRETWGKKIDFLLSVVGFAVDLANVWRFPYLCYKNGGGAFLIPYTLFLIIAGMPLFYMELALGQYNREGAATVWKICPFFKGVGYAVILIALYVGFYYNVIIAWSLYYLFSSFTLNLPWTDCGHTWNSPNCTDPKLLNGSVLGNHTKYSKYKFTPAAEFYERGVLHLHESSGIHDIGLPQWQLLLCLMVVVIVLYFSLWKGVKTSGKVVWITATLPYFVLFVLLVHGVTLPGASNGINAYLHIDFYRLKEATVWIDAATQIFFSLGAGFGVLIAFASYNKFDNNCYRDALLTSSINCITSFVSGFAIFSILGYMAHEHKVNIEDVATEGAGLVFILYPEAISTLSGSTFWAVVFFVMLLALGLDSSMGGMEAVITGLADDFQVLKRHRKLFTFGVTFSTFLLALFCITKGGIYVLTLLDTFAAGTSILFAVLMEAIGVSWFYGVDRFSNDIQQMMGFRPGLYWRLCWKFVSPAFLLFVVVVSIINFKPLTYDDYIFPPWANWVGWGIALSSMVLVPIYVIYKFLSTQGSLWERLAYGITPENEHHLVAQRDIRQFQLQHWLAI
T1 sequence (P31645 whole entry): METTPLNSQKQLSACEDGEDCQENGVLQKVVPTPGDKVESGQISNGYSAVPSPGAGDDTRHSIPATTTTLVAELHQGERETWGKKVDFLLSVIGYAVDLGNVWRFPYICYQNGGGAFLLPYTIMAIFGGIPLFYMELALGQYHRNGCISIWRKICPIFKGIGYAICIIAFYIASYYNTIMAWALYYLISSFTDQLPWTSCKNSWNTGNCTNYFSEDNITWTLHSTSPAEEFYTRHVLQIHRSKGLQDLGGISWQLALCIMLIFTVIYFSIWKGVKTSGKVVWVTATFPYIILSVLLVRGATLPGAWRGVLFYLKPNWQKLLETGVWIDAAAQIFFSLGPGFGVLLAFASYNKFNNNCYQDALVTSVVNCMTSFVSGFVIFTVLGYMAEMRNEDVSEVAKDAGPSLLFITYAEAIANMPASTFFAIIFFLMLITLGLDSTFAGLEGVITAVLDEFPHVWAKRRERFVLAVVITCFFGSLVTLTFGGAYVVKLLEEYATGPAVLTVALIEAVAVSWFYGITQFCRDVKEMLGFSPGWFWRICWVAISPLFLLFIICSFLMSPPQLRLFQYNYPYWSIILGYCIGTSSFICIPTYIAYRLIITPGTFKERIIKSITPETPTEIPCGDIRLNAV

Consider `CN(C)C1CC(c2ccc(Cl)c(Cl)c2)c2ccccc2C1O` (single isomer, unassigned) [Compound 23c, 4-(3,4-dichlorophenyl)-2-(dimethylamino)-1,2,3,4-tetrahydronaphthalen-1-ol], for which the IC50 is 2360 nM in assay [1], 21 nM in assay [2] (setting [4]) and 36 nM in assay [3] (Human IC50 (nM) NET).
With `CN[C@H]1Cc2ccc(OC)cc2[C@@H](c2ccc(Cl)c(Cl)c2)C1` (single isomer, unassigned) [Compound 32a.2, 4-(3,4-dichlorophenyl)-6-methoxy-N-methyl-1,2,3,4-tetrahydronaphthalen-2-amine], the concentration for half-maximal inhibition (IC50) in assay [1] worked out at 130 nM; in assay [2] (setting [4]), 415 nM; in assay [3] (read-out: Human IC50 (nM) NET) it was 467 nM.
The like results for `CNC(C)C1=Cc2ccccc2[C@H](c2ccc(Cl)c(Cl)c2)C1` (single isomer, unassigned) [Compound 47] were, in that order, 44 nM, 1140 nM and 1180 nM.
For `COc1ccc2c(c1)C(c1ccc(Cl)c(Cl)c1)CC(N(C)C)C2` (single isomer, unassigned) [Compound 33a.4, 4-(3,4-dichlorophenyl)-6-methoxy-N,N-dimethyl-2,3,4-tetrahydronaphthalen-2-amine], in that order: 808 nM, 1410 nM and 1700 nM.
For `CC1C[C@@H](c2ccc(Cl)c(Cl)c2)c2ccccc2/C1=N\O` (single isomer, unassigned) [Compound 58], in that order: 1700 nM, 436 nM and 2840 nM.
Take `CC1C[C@@H](c2ccc(Cl)c(Cl)c2)c2ccccc2/C1=N\O` (single isomer, unassigned) [Compound 57]: the IC50 worked out at 3180 nM in assay [1], 997 nM in assay [2] (setting [4]) and 3890 nM in assay [3] (read-out: Human IC50 (nM) NET).
`COc1ccc2c(c1)C[C@H](N(C)C)C[C@@H]2c1ccc(Cl)c(Cl)c1` (single isomer, unassigned) [Compound 33c.3, 4-(3,4-dichlorophenyl)-7-methoxy-N,N-dimethyl-1,2,3,4-tetrahydronaphthalen-2-amine]: the figures for the IC50 in assay [1], in assay [2] (setting [4]) and in assay [3] (read-out: Human IC50 (nM) NET) were 616 nM, 83 nM and 906 nM, respectively.
In the case of `CN[C@@H]1Cc2cccc(OC)c2[C@H](c2ccc(Cl)c(Cl)c2)C1` (single isomer, unassigned) [Compound 32b.2, 4-(3,4-dichlorophenyl)-5-methoxy-N-methyl-1,2,3,4-tetrahydronaphthalen-2-amine], the figures for the IC50 in assay [1], in assay [2] (setting [4]) and in assay [3] (read-out: Human IC50 (nM) NET) were 307 nM, 496 nM and 2320 nM, respectively.
For `CN(C)[C@H]1CCc2ccccc2[C@H]1c1ccc(Cl)c(Cl)c1` (single isomer, unassigned) [Compound 37b, 1-(3,4-dichlorophenyl)-N,N-dimethyl-1,2,3,4-tetrahydronaphthalen-2-amine], in that order: 742 nM, 106 nM and 499 nM.
For `CN(C)[C@@H]1c2ccccc2CC[C@@H]1c1ccc(Cl)c(Cl)c1` (single isomer, unassigned) [Compound 41a, cis-2-(3,4-dichlorophenyl)-N,N-dimethyl-1,2,3,4-tetrahydronaphthalen-1-amine], the IC50 is 3170 nM in assay [1], 2280 nM in assay [2] (setting [4]) and more than 10000 nM in assay [3] (read-out: Human IC50 (nM) NET).
For `CN(C)C1CC(c2ccc(Cl)c(Cl)c2)c2ccccc2C1O` (single isomer, unassigned) [Compound 23a, 4-(3,4-dichlorophenyl)-2-(dimethylamino)-1,2,3,4-tetrahydronaphthalen-1-ol], in that order: 117 nM, 371 nM and 710 nM.
For `COc1ccc2c(c1)C(c1ccc(Cl)c(Cl)c1)CC(N(C)C)C2` (single isomer, unassigned) [Compound 33a.3, 4-(3,4-dichlorophenyl)-6-methoxy-N,N-dimethyl-2,3,4-tetrahydronaphthalen-2-amine], in that order: 207 nM, 2290 nM and 1170 nM.
For `COc1ccc2c(c1)C(c1ccc(Cl)c(Cl)c1)CC(N(C)C)C2` (single isomer, unassigned) [Compound 33a.1, 4-(3,4-dichlorophenyl)-6-methoxy-N,N-dimethyl-2,3,4-tetrahydronaphthalen-2-amine], in that order: 475 nM, 781 nM and 2310 nM.
As to `CNC1c2ccccc2CCC1c1ccc(Cl)c(Cl)c1` (single isomer, unassigned) [Compound 40b, 2-(3,4-dichlorophenyl)-N-methyl-1,2,3,4-tetrahydronaphthalen-l-amine], the IC50 in assay [1] is 7720 nM; in assay [2] (setting [4]) it was 1790 nM; in assay [3] (read-out: Human IC50 (nM) NET) it was more than 10000 nM.
`CN(C)C1CC(c2ccc(Cl)c(Cl)c2)c2ccccc2C1O` (single isomer, unassigned) [Compound 23b, 4-(3,4-dichlorophenyl)-2-(dimethylamino)-1,2,3,4-tetrahydronaphthalen-1-ol]: the IC50 in assay [1] worked out at 1300 nM; in assay [2] (setting [4]) it was 67 nM; in assay [3] (Human IC50 (nM) NET), 48 nM.
For `CN(C)[C@H]1CCc2ccccc2[C@H]1c1ccc(Cl)c(Cl)c1` (single isomer, unassigned) [Compound 37a, 1-(3,4-dichlorophenyl)-N,N-dimethyl-1,2,3,4-tetrahydronaphthalen-2-amine], the IC50 in assay [1] came to 355 nM; in assay [2] (setting [4]), 235 nM; in assay [3] (read-out: Human IC50 (nM) NET), 2380 nM.
`CN[C@H]1Cc2ccc(OC)cc2[C@@H](c2ccc(Cl)c(Cl)c2)C1` (single isomer, unassigned) [Compound 32a.1, 4-(3,4-dichlorophenyl)-6-methoxy-N-methyl-1,2,3,4-tetrahydronaphthalen-2-amine]: the IC50 was found to be 162 nM in assay [1], 1080 nM in assay [2] (setting [4]) and 1210 nM in assay [3] (read-out: Human IC50 (nM) NET).
Take `CN(C)[C@H]1Cc2ccccc2[C@H](c2ccc(Cl)c(Cl)c2)C1` (single isomer, unassigned) [Compound 8d, [4-(3,4-dichlorophenyl)-1,2,3,4-tetrahydro-naphthalen-2-yl]-dimethylamine]: the IC50 is 319 nM in assay [2] (setting [4]) and 98 nM in assay [3] (Human IC50 (nM) NET).
As for `CN[C@H]1CCc2ccccc2[C@H]1c1ccc(Cl)c(Cl)c1` (stereo in doubt) [Compound 36d, 1-(3,4-dichlorophenyl)-N-methyl-1,2,3,4-tetrahydronaphthalen-2-amine], the IC50 in assay [2] (setting [4]) came to 204 nM; in assay [3] (read-out: Human IC50 (nM) NET) it was 1620 nM.
Consider `CN(C)[C@H]1Cc2ccccc2[C@H](c2ccc(Cl)c(Cl)c2)C1` (single isomer, unassigned) [Compound 8b, [4-(3,4-dichlorophenyl)-1,2,3,4-tetrahydro-naphthalen-2-yl]-dimethylamine], for which the concentration for half-maximal inhibition (IC50) in assay [2] (setting [4]) is 176 nM; in assay [3] (Human IC50 (nM) NET), 174 nM.
With `N[C@H]1Cc2ccccc2[C@H](c2ccc(Cl)c(Cl)c2)C1` (single isomer, unassigned) [Compound 6c, [4-(3,4-dichlorophenyl)-1,2,3,4-tetrahydro-naphthalen-2-yl]-amine], the IC50 is 894 nM in assay [2] (Human IC50 (nM) DAT) and 855 nM in assay [3] (Human IC50 (nM) NET).
Take `CN[C@H]1CCc2ccccc2[C@H]1c1ccc(Cl)c(Cl)c1` (single isomer, unassigned) [Compound 36a, 1-(3,4-dichlorophenyl)-N-methyl-1,2,3,4-tetrahydronaphthalen-2-amine]: the results for the IC50 in assay [2] (setting [4]) and in assay [3] (read-out: Human IC50 (nM) NET) were 511 nM and 3450 nM, respectively.
For `CNC[C@H]1Cc2ccccc2[C@H](c2ccc(Cl)c(Cl)c2)C1` [Compound 15a, [4-(3,4-dichlorophenyl)-1,2,3,4-tetrahydro-naphthalen-2-ylmethyl]-methylamine], in that order: 125 nM and 72 nM.
As for `N[C@H]1Cc2ccccc2[C@H](c2ccc(Cl)c(Cl)c2)C1` (single isomer, unassigned) [Compound 6b, [4-(3,4-dichlorophenyl)-1,2,3,4-tetrahydro-naphthalen-2-yl]-amine], the IC50 came to 408 nM in assay [2] (Human IC50 (nM) DAT) and 731 nM in assay [3] (Human IC50 (nM) NET).
As to `CN(C)[C@H]1Cc2ccccc2[C@H](c2ccc(Cl)c(Cl)c2)C1` [Compound 8a, [4-(3,4-dichlorophenyl)-1,2,3,4-tetrahydro-naphthalen-2-yl]-dimethylamine], the IC50 in assay [2] (setting [4]) is 454 nM; in assay [3] (read-out: Human IC50 (nM) NET), 167 nM.
